Test results from article PMC2562941 (Molecular carcinogenesis, 2008).
One block for each compound: values may come before it.

Key:
[1] = system: colorectal cancer cell lines; conditions: independent of COX activity; cited from earlier work
[2] = system: HT-29 human colon cancer cells; experiment: Cell growth of HT-29 cells; type: cell-based; conditions: each at 10 μM; growth curves over 5 days; vs untreated control
HT-29 colon cancer cells = experiment: Soft agar colony formation assay; type: cell-based, human; conditions: HT-29 cells; 10 or 20 μM; 10 days
[3] = system: COX-2^−/− murine embryonic fibroblasts; experiment: Cell growth of COX-2-/- murine embryonic fibroblasts; conditions: 10 μM, after 6 days
COX-2 = conditions: ref 7 (Jang et al.); cited from earlier work
[4] = system: 1.2-dimethylhydrazine-induced colon carcinogenesis; conditions: rats; 8 mg/kg body weight every day for 30 weeks; cited from earlier work
JB6 Cl41 cells = conditions: cited from earlier work
COX-2^+/+ cells = experiment: COX-2-mediated PGE2 production ex vivo in COX-2+/+ cells; type: cell-based, murine; conditions: for IC50: Mus musculus, read-out: IC50, suppression of PGE2 synthesis ex vivo
[5] = system: COX-2^+/+ murine embryonic fibroblasts; experiment: Cell growth of COX-2+/+ murine embryonic fibroblasts; conditions: 10 μM, after 6 days
[6] = target: T1, recombinant human COX-2 enzyme (Homo sapiens, UniProt P35354); experiment: COX-2-mediated PGE2 production in vitro; type: biochemical
T1 sequence (P35354 18-604): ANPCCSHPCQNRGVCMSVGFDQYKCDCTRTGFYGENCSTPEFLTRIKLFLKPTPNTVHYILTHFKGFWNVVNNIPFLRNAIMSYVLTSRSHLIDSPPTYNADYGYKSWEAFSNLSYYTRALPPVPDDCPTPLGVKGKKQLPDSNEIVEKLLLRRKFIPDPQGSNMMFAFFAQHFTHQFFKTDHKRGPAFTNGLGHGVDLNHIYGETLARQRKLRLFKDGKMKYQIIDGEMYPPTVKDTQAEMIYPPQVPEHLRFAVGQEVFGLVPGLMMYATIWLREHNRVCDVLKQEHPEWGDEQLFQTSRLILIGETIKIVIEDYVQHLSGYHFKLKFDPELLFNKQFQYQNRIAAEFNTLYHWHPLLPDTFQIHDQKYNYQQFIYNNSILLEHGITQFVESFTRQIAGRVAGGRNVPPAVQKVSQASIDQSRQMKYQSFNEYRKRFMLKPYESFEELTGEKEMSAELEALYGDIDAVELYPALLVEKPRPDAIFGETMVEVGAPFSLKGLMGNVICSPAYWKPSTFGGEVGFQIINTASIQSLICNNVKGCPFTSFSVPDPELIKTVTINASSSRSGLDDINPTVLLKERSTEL

His-tagged COX-2 = target: T2, His-tagged COX-2 (Homo sapiens, UniProt P35354); experiment: Surface plasmon resonance; type: binding; conditions: each at 300 μM; 0.1 μg His-COX-2; 25 °C
T2 sequence (P35354 18-604): T1 sequence (P35354 18-604)

[7] = system: three different human colon cancer cell lines; conditions: cited from earlier work

Structure (SMILES): Oc1cc(O)cc(/C=C/c2ccc(O)c(O)c2)c1 [Piceatannol]
- effect on cell cycle progression [1]: inhibited progression through the S phase

Structure (SMILES): Oc1ccc(/C=C/c2cc(O)cc(O)c2)cc1 [RSVL, 3,5,4'-trihydroxy-trans-stilbene, reference compound]
- effect on growth of COX-2^−/− cells [3]: unresponsive
- inhibition of cyclooxygenase activity of COX-2 (COX-2): did not inhibit
- effect on size of tumors [4]: markedly reduce the size of tumors
- growth inhibitory effect on COX-2^+/+ cells [5]: potent growth inhibitory effects
- suppression of growth of COX-2^+/+ cells [5]: 60%

- IC50 [6]: 25 µM
- binding with His-COX-2 (SPR sensograms) (His-tagged COX-2): more strongly than with RSVL
- IC50 (COX-2^+/+ cells): 50 µM
Structure (SMILES): Oc1cc(O)cc(/C=C/c2cc(O)c(O)c(O)c2)c1 [RSVL-2, 3,3’,4’,5’,5-pentahydroxy-trans-stilbene]
- inhibition of HT-29 cell growth [2]: inhibited cell growth by day 4
- inhibition of anchorage-independent colony formation in soft agar (HT-29 colon cancer cells): even more strongly
- effect on growth of COX-2^−/− cells [3]: unresponsive
- inhibitory effect on EGF-induced cell transformation compared with resveratrol (JB6 Cl41 cells; EGF-induced JB6 Cl41 transformation, ref 13 (She et al.)): more potent inhibitory effect
- growth inhibitory effect on COX-2^+/+ cells [5]: potent growth inhibitory effects
- suppression of growth of COX-2^+/+ cells [5]: 80%

Structure (SMILES): COc1ccc(/C=C/c2cc(OC)cc(OC)c2)cc1 [RSVL-3, 3,4’,5-trimethoxy-trans-stilbene]
- inhibition of PGE2 synthesis in vitro [6]: not RSVL-3, inhibited PGE2 synthesis in vitro
- inhibition of HT-29 cell growth [2]: not RSVL-3, inhibited cell growth
- inhibition of anchorage-independent colony formation in soft agar (HT-29 colon cancer cells): little effect
- binding with His-COX-2 (SPR sensograms) (His-tagged COX-2): does not bind
- suppression of PGE2 synthesis ex vivo (COX-2^+/+ cells; COX-2^+/+ cells): not RSVL-3, dose-dependently suppressed PGE2 synthesis
- growth inhibitory effect on COX-2^+/+ cells [5]: not RSVL-3, exhibited potent growth inhibitory effects

Structure (SMILES): Oc1ccc([C@@H]2c3c(O)cc4c(c3[C@@H]3c5c(O)cc6c(c5[C@H]2[C@H]3c2ccc(O)cc2)[C@@H](c2cc(O)cc(O)c2)[C@H](c2ccc(O)cc2)O6)[C@@H](c2cc(O)cc(O)c2)[C@H](c2ccc(O)cc2)O4)cc1 [Vaticanol C]
- suppression of cell growth through induction of apoptosis [7]: markedly suppress cell growth
